Measured values reported in patent US20250152559A1, “METHODS FOR TREATING MYC-AMPLIFIED CANCER” (The Governing Council of the University of Toronto, priority 2023, published 2025).
Values joined by “and” are separate entries in the source; they are usually repeats but may differ in a detail not shown here. Equal values may be shown once.

Columns and labels:
D425 = test: PrestoBlue cell viability, 72-hour treatment, limiting dilution; format: cell-based; details: Homo sapiens, read-out: BAY2402234 IC50; D425, G3MB-MYC
Procedure: (§1) SU_MB002, NSC194, NSC197 and NSC201FT, MBT375 and MED411FHTC were maintained in Neurocult Complete (NCC) media (Stem Cell Technologies; catalogue #05751). D425 and D458 were maintained in Dulbecco's […] (DMEM) containing 10% fetal bovine serum (FBS). HD-MB03 were maintained in NCC containing 10% FBS. All cell lines were conditioned in NCC for a minimum of 48 hours before experimentation. SU_MB002 and HD-MB03 G3MB-MYC PDOX were obtained from collaborators as kind gifts and are frequently passaged in vivo. SU_MB002, a treatment-refractory group 3 MB acquired at autopsy was received from Dr. Yoon-Jae Cho. Dr. Till Milde provided HD-MB03, a treatment-naïve group 3 MBs. ICB1299 group 4 MB cells were obtained as a gift from Silvia Marino's laboratory^62. MBT375 was established in-house from a surgical specimen of group 4 MB, which was engrafted in the cerebellum of mice for serial propagation. Nanostring genotyping was used to confirm group 4 medulloblastoma identity. MED411FHTC PDOX were procured from Dr. Olson's brain tumor research lab. D425 and D458 were obtained from the ATCC. All cell lines were fingerprint verified by short tandem repeat (STR) profiling. NSC194, NSC197 and NSC201FT were derived in-house from donor fetal brain tissues^63.
(§2) For assessment of viability, cells were seeded into 96-well plates at a density of 1,000 cells per well. Viability was measured by adding PrestoBlue™ diluted 1:10 (ThermoFisher Scientific; Catalogue #A13261) followed by a 4-hour incubation. Relative fluorescence intensity was determined via background correction. To assess tumorsphere forming capacity, cells were seeded at a low density (200 cells per well) and incubated for 3-5 days. Tumorspheres were manually counted thereafter.

D458 = test: as above; format: cell-based; details: Homo sapiens, read-out: BAY2402234 IC50; D458, G3MB-MYC
Procedure: as §1, §2

HD-MB03 = test: as above; format: cell-based; details: Homo sapiens, read-out: BAY2402234 IC50; HD-MB03, G3MB-MYC
Procedure: as §1, §2

MED411-FHTC = test: as above; format: cell-based; details: Homo sapiens, read-out: BAY2402234 IC50, G3MB-MYC
Procedure: as §1, §2

SU_MB002 = test: as above; format: cell-based, human; details: SU_MB002, media with uridine hydrochloride (100 μM)
Procedure: as §1, §2

[1] = tested on: de novo pyrimidine biosynthesis in flank tumor tissue; test: LC-MS metabolome profiling of flank xenograft tissues of treated mice; format: in vivo; details: individual samples, listed as BAY
Procedure: In parallel to these experiments, subcutaneous flank xenografts were engrafted into two cohorts of mice, which were treated with the vehicle or R2. […] To investigate the pharmacokinetics of BAY in vivo, its concentration in plasma and brain tissues of healthy mice was directly quantified using an LC-MS approach. BAY was detected in both brains and plasma of mice undergoing treatment, however the plasma concentrations exceeded those of the brain by approximately 10-fold (FIG. 5H-I). To determine whether treatment with BAY affects de novo pyrimidine biosynthesis in vivo, changes in pyrimidine metabolism were measured in the brain in comparison to tumor tissues from the flank (FIG. 5J-K). Although BAY treatment impacted de novo pyrimidine metabolism in vivo in both brain and tumor tissues, with a similar pattern observed in vitro (FIG. 4A), the effect size was stronger in peripheral tumor tissue in comparison to brain tissue. Such findings further reflect the limited capacity for BAY to accumulate within the brain.
For metabolome profiling of tissues, ˜5 mg tissue were homogenized in 225 μL of −20° C. cold, methanol using a Bullet Blender Tissue Homogenizer (NextAdvance, Inc.) Bullet for 3 min. The homogenate was vortexed for 20 s and 750 μL of −20° C. cold methyl tertiary-butyl ether (MTBE) was added, and the mixture was vortexed for 10 s and shaken at 4° C. for 5 min. Next, 188 μL room temperature water was added and vortexed for 20 s to induce phase separation. After centrifugation for 5 min at 14,000×g, the bottom polar phase was collected and dried down. Metabolite extracts were reconstituted in LC-MS grade water/acetonitrile (50:50; v:v), vortexed for 1 min, sonicated for 15 min, and centrifuged at 16,000×g and 4° C. for 15 min to remove insoluble debris.
The LC-MS metabolomics and lipidomics analyses of the 3 NSC and 3 MB cell lines and tissues were performed on a UPLC-MS system consisting of an Orbitrap IQ-X Tribrid coupled to a Horizon Vanquish UPLC system (Thermo Fisher Scientific). The lipidomics analysis was conducted in positive-ion mode with a spray voltage of 3.5 kV while the metabolomics analysis was conducted in negative-ion mode with a spray voltage of −2.5 kV. The following source conditions were identical in both analyses and were set as follows: Sheath gas flow rate, 50 arbitrary units; Aux. gas flow rate, 10 arbitrary units; Sweep gas flow rate, 1 arbitrary unit; Ion transfer tube temp., 300° C.; Vaporizer temp., 350° C. The following acquisition parameters were used for MS1 analysis in both methods: resolution, 120,000, AGC target, 4e5. The maximum IT was set at […] for the lipidomics analysis and 200 ms for the metabolomics analysis. Data-dependent MS/MS parameters for the lipidomics analyses: resolution, 30,000; AGC target, 7.5e4; maximum IT, Dynamic (54 ms); time between Master Scans, 0.6 s; isolation window, 1.0 m/z; NCE/stepped nce, 20, 30, 40; intensity threshold, 5e4; exclude isotopes, on; dynamic exclusion, 3.0 s. Data-dependent MS/MS parameters for the metabolomics analyses: resolution. 15,000; AGC target, 7.5e4; maximum IT, Dynamic (22 ms); time between Master Scans, 0.6 s; isolation window, 1.0 m/z; NCE/stepped nce, 20, 30, 40, 50; intensity threshold, 5e4; exclude isotopes, on; dynamic exclusion, 5.0 s. To increase the total number of MS/MS spectra in the lipidomics analysis, five runs with iterative MS/MS exclusions were performed using the AcquireX function in Xcalibur (Thermo Fisher Scientific). In the metabolomics analysis, three runs with iterative MS/MS exclusions were performed using the AcquireX function. For the lipidomics analysis, chromatographic separation was achieved using a Waters Acquity UPLC CSH C18 (100 mm×2.1 mm i.d.; 1.7 μm) column injecting 2 μL. […] The column was equilibrated for 2 min at 15% B. The flow rate was set to 250 μL/min. The column temperature was maintained at 65° C. […]

[2] = flank tumor tissue of BAY-treated mice

CCn1c(CO)nn(-c2cc(O[C@@H](C)C(F)(F)F)c(C(=O)Nc3c(F)cccc3Cl)cc2F)c1=O [BAY2402234]
IC50 (D425): 0.494 nM
IC50 (D458): 0.26 nM
IC50 (HD-MB03): 0.243 nM
IC50 (MED411-FHTC): 0.626 nM
tumor cell proliferation and viability with uridine supplementation (SU_MB002): rescues
Glutamine normalized peak intensity (Area) [1, 2]: 55492788 and 50587148 and 68843176 and 56207472
N-Carbamoyl aspartic acid normalized peak intensity (Area) [1, 2]: 385157056 and 380028608 and 450759360 and 384681824
Orotic acid normalized peak intensity (Area) [1, 2]: 33617724 and 35906864 and 46970420 and 34348420
UDP-GluNAc normalized peak intensity (Area) [1, 2]: 2589539 and 2049874 and 3781049 and 10999488
UTP normalized peak intensity (Area) [1, 2]: 4036 and 1148 and 5307 and 1474
Uridine 5′-diphosphate (UDP) normalized peak intensity (Area) [1, 2]: 5654 and 1891 and 15124 and 5023
Uridine 5′-monophosphate normalized peak intensity (Area) [1, 2]: 17895140 and 14218088 and 25187528 and 9202930
Uridine normalized peak intensity (Area) [1, 2]: 1736921 and 2207031 and 3920911 and 1886173
dihydroorotic acid normalized peak intensity (Area) [1, 2]: 119216720 and 62149264 and 89191448 and 46399468
BAY-2402234 normalized peak intensity (Area) [1]: 249608 and 266857 and 361684 and 146195
